Results from PMC9530166, “Allosteric regulation of glycogen breakdown by the second messenger cyclic di-GMP” (Nature Communications, 2022).

What was measured:
[1] = tested on: His6-GlgXD342A+E378A; assay: BCA reducing-end enzyme assay, GlgXD342A+E378A; assay type: biochemical, Streptomyces venezuelae; details: 50 µM c-di-GMP, 0.05% glycogen from rabbit, 1 µM enzyme
Procedure: (§1) Fig. 2 c-di-GMP stimulates glycogen breakdown activity of GlgX in vitro. a Bicinchoninic acid (BCA) in vitro enzyme assay. The purple copper bicinchoninate complex indicating GlgX-mediated generation of reducing ends in glycogen was quantified by photometric measurements at 562 nm. A562 values were converted into reducing ends [µM glucose equivalents] based on D-glucose as a standard. Reactions contained 0.05% (w/v) glycogen from rabbit, 1 µM GlgX and increasing concentrations of c-di-GMP (0–100 µM). Source data are provided as a Source data file. b BCA assay containing 0.05% of either glycogen from rabbit, pullulan, amylopectin from maize or amylose from potato as substrates. Where appropriate, 1 µM GlgX or 50 µM c-di-GMP were added to the reaction samples. Source data are provided as a Source data file. c BCA assay as in a with or without c-di-GMP (50 µM), 0.05% glycogen from rabbit (S) and 1 µM Vnz25270, GlgX, the active site mutants GlgXD342A, GlgXE378A, GlgXD342A+E378A, or the c-di-GMP-binding mutant variant GlgXDETR49-52 as indicated. […]
(§2) Hydrolysis of carbohydrates was assessed in vitro by measuring the accumulation of reducing sugar ends using the BCA assay[42] and D-glucose as a standard for calibration (Supplementary Fig. 11). […] 125 μl sample aliquots were transferred in duplicates to a 96 well plate and the absorbance at 562 nm was measured using a plate reader.

[2] = tested on: His6-GlgX (Vnz29170); assay: nanoDSF label-free thermal shift assay, wild-type GlgX; assay type: binding, Streptomyces venezuelae; details: 10 µM GlgX, 1 mM ligand; without ligand 51.5 °C
Procedure: (§3) Fig. 1 GlgX binds c-di-GMP. a Quantification of c-di-GMP in S. venezuelae cell extracts using LC-MS/MS. Cells were harvested during late vegetative growth (8–10 h), transition to sporulation (12–16 h), and sporulation (18–20 h). Data are presented as the mean of biological replicates ±SD (n = 3). […] Source data are provided in the Source data file. c [^32P]-c-di-GMP binds to GlgX in DRaCALA assay indicated by dark spots in the center of the nitrocellulose membrane. For competition, excess (100 µM) of unlabeled c-di-GMP, c-di-AMP, or GTP was added to the reaction containing [^32P]-c-di-GMP and GlgX.
To determine if the interaction between Vnz29170 (herein called GlgX) and c-di-GMP is direct, we purified an N-terminally His6-tagged GlgX protein and performed nano differential scanning fluorimetry (nanoDSF) thermal shift assays. […]
For label-free thermal shift assay experiments, 10 μM purified protein in 25 mM Tris pH 8, 150 mM NaCl, 2.5% (v/v) glycerol, and 5 mM MgCl2 was incubated without or with (1 mM) of nonlabeled c-di-GMP or c-di-AMP, respectively, at rt for 10 min. Reactions were subsequently analyzed in a Tycho NT.6 (NanoTemper Technologies) device with a 30 K/min thermal ramp and the internal fluorescence at 330 and 350 nm was recorded. […]

[3] = tested on: His6-GlgXDETR49-52; assay: BCA reducing-end enzyme assay, GlgXDETR49-52; assay type: biochemical, Streptomyces venezuelae; details: 50 µM c-di-GMP, 0.05% glycogen from rabbit, 1 µM enzyme
Procedure: as §1, §2

[4] = tested on: His6-GlgX; assay: DRaCALA with [32P]-c-di-GMP, wild-type GlgX; assay type: binding, Streptomyces venezuelae
Procedure: as §3
To determine if the interaction between Vnz29170 (herein called GlgX) and c-di-GMP is direct, we purified an N-terminally His6-tagged GlgX protein and performed nano differential scanning fluorimetry (nanoDSF) thermal shift assays. […] In addition, we used differential radial capillary action of ligand assays (DRaCALA), which allows visualization of protein-bound radiolabeled ligand as a central spot after the application of the protein-ligand mix onto nitrocellulose. Using DRaCALA we confirmed that GlgX from S. venezuelae binds ^32P-labeled c-di-GMP.
For DRaCALA assays, purified His6-GlgX (15 μg) was mixed with 0.5 μl undiluted [^32P]-c-di-GMP (42 nM) (Hartmann Analytic GmbH, Braunschweig) in binding buffer (25 mM Tris pH 8; 150 mM NaCl; 2.5% (v/v) glycerol; 5 mM MgCl2) and the reaction was incubated at rt for 5 min. For competition assays, 100 μM nonlabeled nucleotides were added to the samples and incubated at rt for 5 min prior to the addition of [^32P]-c-di-GMP. Reactions (10 μl) were spotted on the same nitrocellulose membrane (Roth), air dried for 10 min and analyzed via phosphorimaging.

[5] = tested on: His6-Vnz25270; assay: BCA reducing-end enzyme assay, Vnz25270; assay type: biochemical, Streptomyces venezuelae; details: 50 µM c-di-GMP, 0.05% glycogen from rabbit, 1 µM enzyme
Procedure: as §1, §2

`Nc1nc2c(ncn2[C@@H]2O[C@@H]3CO[P@](=O)(O)O[C@H]4[C@@H](O)[C@H](n5cnc6c(=O)[nH]c(N)nc65)O[C@@H]4CO[P@](=O)(O)O[C@H]3[C@H]2O)c(=O)[nH]1` [c-di-GMP, bis-(3′−5′)-cyclic diguanosine monophosphate] was tested, and the “stimulation of enzyme activity by c-di-GMP” value [1] was “could not be stimulated”, the “melting point of His6-GlgX in the presence of ligand” value [2] was 55.8 °C and the “effect of c-di-GMP on hydrolytic activity” value [3] was “remained at basal levels”. The “binding of 32P-labeled c-di-GMP in DRaCALA” value ([4]; 15 µg His6-GlgX, [32P]-c-di-GMP) was “binds”, the “competition with 32P-c-di-GMP for binding to GlgX” value ([4]; excess (100 µM) unlabeled nucleotide) was “competed” and the “effect of c-di-GMP on hydrolytic activity” value [5] was “remained at basal levels”.
